Results from patent US5264347A, “Method for the determination of α-ketoisocaproate in biological samples using D-α-hydroxyisocaproic dehydrogenase from lactobacillus casei” (Kernforschungsanlage Juelich GmbH, priority 1988, dated 1993).

Experiments:
[1] = target: T1, hydroxy-acid dehydrogenase (enzyme solution) of L. casei ssp. pseudoplantarum DSM 20 207 (Lacticaseibacillus paracasei, UniProt P17584); assay: Selection of a suitable enzyme: initial reaction rate with keto acid, NADH absorption at 340 nm; format: biochemical, Lactobacillus casei ssp. pseudoplantarum; conditions: 0.15 mM keto acid, 0.2 mM NADH, pH 7.0
T1 sequence (P17584 1-333): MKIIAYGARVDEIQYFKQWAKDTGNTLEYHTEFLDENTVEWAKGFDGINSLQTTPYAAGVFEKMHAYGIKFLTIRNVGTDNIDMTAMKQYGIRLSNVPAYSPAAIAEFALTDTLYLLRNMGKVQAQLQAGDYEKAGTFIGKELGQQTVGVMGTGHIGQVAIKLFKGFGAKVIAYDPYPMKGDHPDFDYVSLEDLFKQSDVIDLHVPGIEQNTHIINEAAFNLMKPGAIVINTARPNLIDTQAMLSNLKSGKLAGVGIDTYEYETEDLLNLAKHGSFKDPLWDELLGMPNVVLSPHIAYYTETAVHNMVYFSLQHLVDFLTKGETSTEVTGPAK
Protocol: (§1) The species Lactobacillus casei is currently divided into five subgroups (subspecies). […] The three keto acids KIC, KMV and KIV were used in a concentration of 0.15 mM (final concentration in the assay).
(§2) For the assay mixture, the microorganisms which had been cultured under customary conditions were harvested, the cells were disrupted by mechanical action, and the supernatant obtained by centrifugation was used as "enzyme solution" for the assay.
(§3) The assay mixture contained:
(§4) 0.1M potassium phosphate buffer, pH 7.0;
(§5) 0.020 ml of enzyme solution (0.1-0.2 mg of protein);
(§6) The initial reaction rate was determined by measuring the absorption at 340 nm as a function of time. (The reaction rate is reported in international units (IU)/min.) The results obtained are summarized below.

[2] = target: T2, hydroxy-acid dehydrogenase (enzyme solution) of L. casei ssp. pseudoplantarum DSM 20 008 (Lacticaseibacillus paracasei, UniProt P17584); assay: as above; format: biochemical, Lactobacillus casei ssp. pseudoplantarum; conditions: 0.15 mM keto acid, 0.2 mM NADH, pH 7.0
T2 construct: the cells were disrupted by mechanical action, and the supernatant obtained by centrifugation was used as; endogenous in cells; host or cells: Lactobacillus casei ssp. pseudoplantarum DSM 20008, cell-free supernatant
T2 sequence (P17584 1-333): T1 sequence (P17584 1-333)
Protocol: as §1, §2, §3, §4, §5, §6

[3] = target: T3, D-α-hydroxyisocaproic dehydrogenase from Lactobacillus casei ssp. pseudoplantarum (DSM 20008) (Lacticaseibacillus paracasei, UniProt P17584); assay: Enzymatic selectivity for KIC: initial reaction rates versus keto acid concentration (FIG. 1); format: biochemical; conditions: change per minute in absorption at 340 nm versus keto-acid concentration, NADH present
T3 construct: D-α-hydroxyisocaproic dehydrogenase from Lactobacillus casei ssp. pseudoplantarum (DSM 20008); endogenous in cells; host or cells: Lactobacillus casei ssp. pseudoplantarum DSM 20008 (enzyme isolated from the strain's own cells)
T3 sequence (P17584 1-333): T1 sequence (P17584 1-333)
Text: This selectivity is illustrated in FIG. 1, which plots a measure of reaction rate (change per minute in absorption at 340 nm), in the presence of NADH and a Lactobacillus casei D-α-hydroxyisocaproicdehydrogenase, versus keto-acid concentration for KIC, KMV and KIV, respectively. In FIG. 1, .largecircle.--.largecircle. represents ketoisocaproate, O O represents ketomethylvalerate and .quadrature.----.quadrature. represents ketoisovalerate, respectively.
This entailed use of standard solutions of the three keto acids, each of known concentration (0.2 to 15 ωg/ml of assay mixture).
as §3, §4
stepped concentrations of keto acids.
The initial reaction rates (ΔA340 /min) were measured at 340 nm. […] This difference would be sufficient for a selective determination of KIC, for example, in serum.

[4] = test system: hydroxy-acid dehydrogenase (enzyme solution) of L. curvatus DSM 20 019; assay: Selection of a suitable enzyme: initial reaction rate with keto acid, NADH absorption at 340 nm; format: biochemical; conditions: 0.15 mM keto acid, 0.2 mM NADH, pH 7.0
Protocol: (§7) The species Lactobacillus casei is currently divided into five subgroups (subspecies). […] The three keto acids KIC, KMV and KIV were used in a concentration of 0.15 mM (final concentration in the assay). […] For the assay mixture, the microorganisms which had been cultured under customary conditions were harvested, the cells were disrupted by mechanical action, and the supernatant obtained by centrifugation was used as "enzyme solution" for the assay. Besides the various Lactobacillus casei strains, other Lactobacillus strains were also investigated; two typical representatives are listed in a table below. The assay mixture contained: 0.1M potassium phosphate buffer, pH 7.0; 0.2 mM NADH; 0.020 ml of enzyme solution (0.1-0.2 mg of protein); 0.15 mM keto acid (as shown in the table). The initial reaction rate was determined by measuring the absorption at 340 nm as a function of time. (The reaction rate is reported in international units (IU)/min.) The results obtained are summarized below.

[5] = target: T4, hydroxy-acid dehydrogenase (enzyme solution) of L. confusus DSM 20 196 (Weissella confusa, UniProt P14295); assay: as above; format: biochemical; conditions: 0.15 mM keto acid, 0.2 mM NADH, pH 7.0
T4 sequence (P14295 1-310): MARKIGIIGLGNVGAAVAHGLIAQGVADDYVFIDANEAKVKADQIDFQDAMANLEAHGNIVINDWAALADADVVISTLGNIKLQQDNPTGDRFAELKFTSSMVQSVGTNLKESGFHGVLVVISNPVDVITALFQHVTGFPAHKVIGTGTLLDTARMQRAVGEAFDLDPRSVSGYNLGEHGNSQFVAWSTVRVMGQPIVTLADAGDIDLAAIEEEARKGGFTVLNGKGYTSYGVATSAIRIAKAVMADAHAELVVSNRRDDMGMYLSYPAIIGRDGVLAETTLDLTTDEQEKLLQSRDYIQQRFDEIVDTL
Protocol: as §7

[6] = target: T5, hydroxy-acid dehydrogenase (enzyme solution) of L. casei ssp. casei DSM 20 011 (Lacticaseibacillus casei, UniProt A0AAN1C5W2); assay: as above; format: biochemical, Lactobacillus casei ssp. casei; conditions: 0.15 mM keto acid, 0.2 mM NADH, pH 7.0
T5 sequence (A0AAN1C5W2 1-333): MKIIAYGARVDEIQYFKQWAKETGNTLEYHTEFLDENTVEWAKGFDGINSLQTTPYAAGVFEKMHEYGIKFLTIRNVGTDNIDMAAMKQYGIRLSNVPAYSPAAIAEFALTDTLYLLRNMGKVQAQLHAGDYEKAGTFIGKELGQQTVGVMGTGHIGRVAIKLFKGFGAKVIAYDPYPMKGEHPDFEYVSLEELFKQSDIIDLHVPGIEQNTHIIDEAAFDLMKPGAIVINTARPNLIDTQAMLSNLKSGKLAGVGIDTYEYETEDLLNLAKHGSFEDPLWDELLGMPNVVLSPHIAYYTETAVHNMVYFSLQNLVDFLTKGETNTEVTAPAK
Protocol: as §1, §2, §3, §4, §5, §6

[7] = test system: hydroxy-acid dehydrogenase (enzyme solution) of L. case ssp. alactosus DSM 20 020; assay: as above; format: biochemical; conditions: 0.15 mM keto acid, 0.2 mM NADH, pH 7.0
Protocol: as §1, §2, §3, §4, §5, §6

[8] = test system: hydroxy-acid dehydrogenase (enzyme solution) of L. casei ssp. tolerans DSM 20 258; assay: as above; format: biochemical; conditions: 0.15 mM keto acid, 0.2 mM NADH, pH 7.0
Protocol: as §1, §2, §3, §4, §5, §6

[9] = test system: hydroxy-acid dehydrogenase (enzyme solution) of L. casei ssp. rhamosus DSM 20 021; assay: as above; format: biochemical; conditions: 0.15 mM keto acid, 0.2 mM NADH, pH 7.0
Protocol: as §1, §2, §3, §4, §5, §6

CCC(C)C(=O)C(=O)O (stereo not drawn) [KMV, ketomethylvalerate]
initial reaction rate [1]: 0 IU/min | initial reaction rate [2]: 0.12 IU/min | enzymatic conversion relative to the conversion of KIC (FIG. 1) [3]: can be ignored | initial reaction rate [4]: 1.40 IU/min | initial reaction rate [5]: 0.90 IU/min | initial reaction rate [6]: 0 IU/min | initial reaction rate [7]: 0 IU/min | initial reaction rate [8]: 0 IU/min | initial reaction rate [9]: 0 IU/min
